Test results as given in ChEMBL document CHEMBL2390888, “Identification and synthesis of N-(thiophen-2-yl) benzamide derivatives as BRAF(V600E) inhibitors” (Bioorg Med Chem Lett, 2013).
Active and inactive are the calls of the source. No cut-off for these calls is given here.

system: Serine/threonine-protein kinase B-raf (Homo sapiens), P15056 [V600E]; assay: Inhibition of BRAF V600E mutant (unknown origin) assessed as inhibition of MEK phosphorylation at 2 uM by ELISA relative to control
Sequence (P15056 whole entry V600E): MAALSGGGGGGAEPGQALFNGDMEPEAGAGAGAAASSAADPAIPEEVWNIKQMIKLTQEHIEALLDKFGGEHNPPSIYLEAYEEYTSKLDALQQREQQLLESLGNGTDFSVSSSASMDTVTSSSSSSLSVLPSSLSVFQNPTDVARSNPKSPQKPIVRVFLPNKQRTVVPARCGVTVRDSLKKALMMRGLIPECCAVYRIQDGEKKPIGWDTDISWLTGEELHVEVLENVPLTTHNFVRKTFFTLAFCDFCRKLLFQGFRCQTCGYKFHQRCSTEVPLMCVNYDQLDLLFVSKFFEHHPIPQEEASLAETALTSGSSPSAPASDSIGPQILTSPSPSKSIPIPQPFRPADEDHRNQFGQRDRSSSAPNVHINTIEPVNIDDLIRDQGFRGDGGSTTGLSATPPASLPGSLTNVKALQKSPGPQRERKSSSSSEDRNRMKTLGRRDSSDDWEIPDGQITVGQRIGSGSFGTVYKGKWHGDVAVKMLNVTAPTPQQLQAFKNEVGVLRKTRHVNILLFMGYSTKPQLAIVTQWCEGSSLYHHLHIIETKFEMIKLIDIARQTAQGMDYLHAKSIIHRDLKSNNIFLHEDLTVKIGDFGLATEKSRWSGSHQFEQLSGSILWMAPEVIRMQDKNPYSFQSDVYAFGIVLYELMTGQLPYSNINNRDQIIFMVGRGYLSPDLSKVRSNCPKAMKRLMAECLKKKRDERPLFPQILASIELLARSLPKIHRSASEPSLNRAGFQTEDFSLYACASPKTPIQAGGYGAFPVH

Q: With `CCOC(=O)c1sc(NC(=O)c2ccccc2OC)c(C#N)c1C` as the molecule, how does the inhibition read?
A: The inhibition was 42%.

Q: Which inhibition does the source give for `CCOC(=O)c1sc(NC(=O)c2cccc(C)c2)c(C#N)c1C` here?
A: The inhibition was 50%.

Q: Which inhibition does the source give for `CCOC(=O)c1sc(NC(=O)c2ccc(N3CCN(C)CC3)cc2)c(C#N)c1C` here?
A: The inhibition was “inactive”.

Q: With `CCOC(=O)c1sc(NC(=O)c2cccc(C#N)c2)c(C#N)c1C` as the molecule, how does the inhibition read?
A: Its inhibition is 40%.

Q: `CCOC(=O)c1sc(NC(=O)c2ccccc2F)c(C#N)c1C` was tested. Which inhibition did it give?
A: Its inhibition is 51%.

Q: Which inhibition does the source give for `Cc1c(C(=O)OC(C)C)sc(NC(=O)c2ccc(F)cc2)c1C#N` here?
A: The inhibition was “inactive”.

Q: How did the inhibition turn out when `CCOC(=O)c1sc(NC(=O)c2ccc(F)cc2)c(C(=O)Nc2ccccc2)c1C` was run?
A: The inhibition was 87%.

Q: Which inhibition does the source give for `CCOC(=O)c1sc(NC(=O)c2ccccc2I)c(C(=O)OC)c1C` here?
A: The inhibition was “inactive”.

Q: How did the inhibition turn out when `COC(=O)c1sc(NC(=O)c2cccc(C)c2)c(C#N)c1C` was run?
A: Its inhibition is “inactive”.

Q: For `CCCOC(=O)c1c(NC(=O)c2ccccc2F)sc(C(=O)OCC)c1C`, which inhibition is on record?
A: Its inhibition is “inactive”.

Q: For `CCOC(=O)c1sc(NC(=O)c2ccc(C(=O)OC)cc2)c(C#N)c1C`, which inhibition is on record?
A: The inhibition was 54%.

Q: `CCOC(=O)c1sc(NC(=O)c2ccc(Br)cc2)c(C#N)c1C` was tested. Which inhibition did it give?
A: Its inhibition is “inactive”.

Q: For `CCOC(=O)c1sc(NC(=O)c2ccc(OC)c(OC)c2)c(C#N)c1C`, which inhibition is on record?
A: The inhibition was 32%.

Q: Which inhibition does the source give for `CCOC(=O)c1sc(NC(=O)c2ccc(Cl)cc2)c(C(N)=O)c1C` here?
A: The inhibition was 26%.

Q: How did the inhibition turn out when `CCOC(=O)c1sc(NC(=O)c2ccc(Cl)c(Cl)c2)c(C#N)c1C` was run?
A: Its inhibition is 36%.

Q: With `CCOC(=O)c1sc(NC(=O)c2ccc(Cl)cc2)c(C#N)c1C` as the molecule, how does the inhibition read?
A: The inhibition was 60%.

Q: Which inhibition does the source give for `CCOC(=O)c1sc(NC(=O)c2cc(OC)cc(OC)c2)c(C#N)c1C` here?
A: Its inhibition is 85%.

Q: `CCOC(=O)c1sc(NC(=O)c2ccc(OCC)cc2)c(C#N)c1C` was tested. Which inhibition did it give?
A: The inhibition was 69%.

Q: For `COC(=O)c1sc(NC(=O)c2cc(OC)cc(OC)c2)c(C#N)c1C`, which inhibition is on record?
A: The inhibition was “inactive”.

Q: How did the inhibition turn out when `CCOc1ccc(C(=O)Nc2sc(C(=O)OC(C)C)c(C)c2C#N)cc1` was run?
A: The inhibition was “inactive”.

Q: `CCOC(=O)c1sc(NC(=O)c2ccc(C)c(OC)c2)c(C#N)c1C` was tested. Which inhibition did it give?
A: The inhibition was “inactive”.

Q: `CCOC(=O)c1sc(NC(=O)c2ccc(C(C)(C)C)cc2)c(C#N)c1C` was tested. Which inhibition did it give?
A: The inhibition was 46%.

Q: How did the inhibition turn out when `CCOC(=O)c1sc(NC(=O)c2ccc(OC)cc2)c(C#N)c1C` was run?
A: Its inhibition is 15%.

Q: For `CCOC(=O)c1sc(NC(=O)c2ccc(Cl)c([N+](=O)[O-])c2)c(C#N)c1C`, which inhibition is on record?
A: Its inhibition is 51%.

Q: How did the inhibition turn out when `CCOC(=O)c1sc(NC(=O)c2cccc(OC)c2)c(C#N)c1C` was run?
A: Its inhibition is 13%.

Q: How did the inhibition turn out when `CCOC(=O)c1sc(NC(=O)c2ccccc2)c(C(=O)OCC)c1C` was run?
A: The inhibition was “inactive”.

Q: `CCOC(=O)c1sc(NC(=O)c2ccccc2F)c(C(N)=O)c1C` was tested. Which inhibition did it give?
A: The inhibition was “inactive”.

Q: For `CCOC(=O)c1sc(NC(=O)c2ccc(C)cc2)c(C#N)c1C`, which inhibition is on record?
A: Its inhibition is 48%.

Q: `CCOC(=O)c1sc(NC(=O)c2cccc([N+](=O)[O-])c2)c(C#N)c1C` was tested. Which inhibition did it give?
A: Its inhibition is 36%.

Q: `Cc1c(C(=O)OC(C)C)sc(NC(=O)c2ccc(Cl)c(Cl)c2)c1C#N` was tested. Which inhibition did it give?
A: The inhibition was 42%.

Q: How did the inhibition turn out when `CCOC(=O)c1sc(NC(=O)c2ccccc2Cl)c(C#N)c1C` was run?
A: The inhibition was “inactive”.

Q: With `COC(=O)c1sc(NC(=O)c2ccccc2OC)c(C#N)c1C` as the molecule, how does the inhibition read?
A: The inhibition was “inactive”.

Q: `CCOC(=O)c1sc(NC(=O)c2ccccc2C)c(C#N)c1C` was tested. Which inhibition did it give?
A: Its inhibition is 52%.

Q: With `CCOC(=O)c1sc(NC(=O)c2ccco2)c(C#N)c1C` as the molecule, how does the inhibition read?
A: Its inhibition is “inactive”.

Q: Which inhibition does the source give for `CCOC(=O)c1sc(NC(=O)c2ccc(Cl)c(C(F)(F)F)c2)c(C#N)c1C` here?
A: Its inhibition is 60%.

Q: For `CCOC(=O)c1sc(NC(=O)c2cccc(Cl)c2)c(C#N)c1C`, which inhibition is on record?
A: Its inhibition is 57%.

Q: How did the inhibition turn out when `CCOC(=O)c1sc(NC(=O)c2ccc(Cl)c(F)c2)c(C#N)c1C` was run?
A: Its inhibition is 59%.

system: Serine/threonine-protein kinase B-raf (Homo sapiens), P15056 [V600E]; assay: Inhibition of BRAF V600E mutant (unknown origin) assessed as inhibition of MEK phosphorylation at 1 uM by ELISA relative to control

Q: For `CCOC(=O)c1sc(NC(=O)c2ccc(F)cc2)c(C(=O)Nc2ccccc2)c1C`, which inhibition is on record?
A: The inhibition was 66%.

Q: For `CCOC(=O)c1sc(NC(=O)c2ccc(NC(C)=O)cc2)c(C#N)c1C`, which inhibition is on record?
A: The inhibition was “inactive”.

Q: Which inhibition does the source give for `CCOC(=O)c1sc(NC(=O)c2ccccn2)c(C#N)c1C` here?
A: The inhibition was 39%.

Q: `CCCS(=O)(=O)Nc1cc(F)c(C(=O)Nc2sc(C(=O)OCC)c(C)c2C#N)c(F)c1` was tested. Which inhibition did it give?
A: The inhibition was 34%.

Q: How did the inhibition turn out when `CCOC(=O)c1sc(NC(=O)c2ccccc2NS(C)(=O)=O)c(C#N)c1C` was run?
A: The inhibition was “inactive”.

Q: `CCOC(=O)c1sc(NC(=O)c2ccc(Cl)nc2)c(C#N)c1C` was tested. Which inhibition did it give?
A: The inhibition was 10%.

Q: Which inhibition does the source give for `CCOC(=O)c1sc(NC(=O)c2cc(OC)cc(OC)c2)c(C#N)c1C` here?
A: Its inhibition is 60%.

Q: For `CCOC(=O)c1sc(NC(=O)c2ccc(NS(C)(=O)=O)cc2)c(C#N)c1C`, which inhibition is on record?
A: Its inhibition is “inactive”.

Q: `CCOC(=O)c1sc(NC(=O)c2ccncc2)c(C#N)c1C` was tested. Which inhibition did it give?
A: Its inhibition is 22%.

Q: For `CCOC(=O)c1sc(NC(=O)c2cccc(NC(C)=O)c2)c(C#N)c1C`, which inhibition is on record?
A: Its inhibition is 17%.

Q: Which inhibition does the source give for `CCOC(=O)c1sc(NC(=O)c2cccnc2)c(C#N)c1C` here?
A: Its inhibition is 20%.

Q: With `CCOC(=O)c1sc(NC(=O)c2cccc(NS(C)(=O)=O)c2)c(C#N)c1C` as the molecule, how does the inhibition read?
A: Its inhibition is “inactive”.

target: Serine/threonine-protein kinase B-raf (Homo sapiens, UniProt P15056, V600E); assay: Inhibition of BRAF V600E mutant (unknown origin) assessed as inhibition of MEK phosphorylation by ELISA
Sequence (P15056 2-766 V600E limits assumed): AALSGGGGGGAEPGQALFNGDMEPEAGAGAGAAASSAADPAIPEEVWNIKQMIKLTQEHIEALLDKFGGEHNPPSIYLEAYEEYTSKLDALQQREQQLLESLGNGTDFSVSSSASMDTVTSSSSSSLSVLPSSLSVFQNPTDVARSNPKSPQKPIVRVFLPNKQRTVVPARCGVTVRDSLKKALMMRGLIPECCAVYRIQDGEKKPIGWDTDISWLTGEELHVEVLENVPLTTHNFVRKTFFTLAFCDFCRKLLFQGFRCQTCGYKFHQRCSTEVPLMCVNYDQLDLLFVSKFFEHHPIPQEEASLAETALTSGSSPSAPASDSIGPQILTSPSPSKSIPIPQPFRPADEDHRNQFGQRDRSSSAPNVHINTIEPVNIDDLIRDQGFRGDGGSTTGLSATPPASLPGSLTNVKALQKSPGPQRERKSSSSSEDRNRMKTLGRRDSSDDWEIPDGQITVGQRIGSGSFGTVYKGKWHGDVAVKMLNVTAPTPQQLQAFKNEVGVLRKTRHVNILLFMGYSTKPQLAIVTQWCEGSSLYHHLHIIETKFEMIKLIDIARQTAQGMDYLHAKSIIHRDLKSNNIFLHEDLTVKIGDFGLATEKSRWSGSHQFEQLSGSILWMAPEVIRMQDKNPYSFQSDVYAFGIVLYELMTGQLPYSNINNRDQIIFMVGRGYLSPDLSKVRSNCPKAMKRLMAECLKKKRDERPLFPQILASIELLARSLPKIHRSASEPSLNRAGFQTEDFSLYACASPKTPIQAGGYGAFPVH

Q: How did the IC50 turn out when `CCOC(=O)c1sc(NC(=O)c2ccc(F)cc2)c(C(=O)Nc2ccccc2)c1C` was run?
A: The IC50 was 630 nM.

Q: With `CCOC(=O)c1sc(NC(=O)c2cc(OC)cc(OC)c2)c(C#N)c1C` as the molecule, how does the IC50 read?
A: The IC50 was 770 nM.

Q: With `CCOC(=O)c1sc(NC(=O)c2ccc(OCC)cc2)c(C#N)c1C` as the molecule, how does the IC50 read?
A: Its IC50 is 1160 nM.

Q: How did the IC50 turn out when `CCOC(=O)c1sc(NC(=O)c2ccc(Cl)c([N+](=O)[O-])c2)c(C#N)c1C` was run?
A: Its IC50 is 2160 nM.

Q: How did the IC50 turn out when `CCOC(=O)c1sc(NC(=O)c2ccccc2C)c(C#N)c1C` was run?
A: The IC50 was 2010 nM.

Q: For `O=C1NC(=S)NC(=O)C1=Cc1ccc(-c2ccc(Br)cc2)o1`, which IC50 is on record?
A: The IC50 was 470 nM.
